According to BindingDB's records for doi:10.7270/Q25719FH (Srmlsc, 2007):

Target: Multidrug resistance-associated protein 1 (Homo sapiens, UniProt P33527)
Assay: doxorubicin EC50 increase in MRP-1 cells, dose response, cell-based, doxorubicin EC50 shift (AID 844)

Chain of Multidrug resistance-associated protein 1 (P33527 whole entry): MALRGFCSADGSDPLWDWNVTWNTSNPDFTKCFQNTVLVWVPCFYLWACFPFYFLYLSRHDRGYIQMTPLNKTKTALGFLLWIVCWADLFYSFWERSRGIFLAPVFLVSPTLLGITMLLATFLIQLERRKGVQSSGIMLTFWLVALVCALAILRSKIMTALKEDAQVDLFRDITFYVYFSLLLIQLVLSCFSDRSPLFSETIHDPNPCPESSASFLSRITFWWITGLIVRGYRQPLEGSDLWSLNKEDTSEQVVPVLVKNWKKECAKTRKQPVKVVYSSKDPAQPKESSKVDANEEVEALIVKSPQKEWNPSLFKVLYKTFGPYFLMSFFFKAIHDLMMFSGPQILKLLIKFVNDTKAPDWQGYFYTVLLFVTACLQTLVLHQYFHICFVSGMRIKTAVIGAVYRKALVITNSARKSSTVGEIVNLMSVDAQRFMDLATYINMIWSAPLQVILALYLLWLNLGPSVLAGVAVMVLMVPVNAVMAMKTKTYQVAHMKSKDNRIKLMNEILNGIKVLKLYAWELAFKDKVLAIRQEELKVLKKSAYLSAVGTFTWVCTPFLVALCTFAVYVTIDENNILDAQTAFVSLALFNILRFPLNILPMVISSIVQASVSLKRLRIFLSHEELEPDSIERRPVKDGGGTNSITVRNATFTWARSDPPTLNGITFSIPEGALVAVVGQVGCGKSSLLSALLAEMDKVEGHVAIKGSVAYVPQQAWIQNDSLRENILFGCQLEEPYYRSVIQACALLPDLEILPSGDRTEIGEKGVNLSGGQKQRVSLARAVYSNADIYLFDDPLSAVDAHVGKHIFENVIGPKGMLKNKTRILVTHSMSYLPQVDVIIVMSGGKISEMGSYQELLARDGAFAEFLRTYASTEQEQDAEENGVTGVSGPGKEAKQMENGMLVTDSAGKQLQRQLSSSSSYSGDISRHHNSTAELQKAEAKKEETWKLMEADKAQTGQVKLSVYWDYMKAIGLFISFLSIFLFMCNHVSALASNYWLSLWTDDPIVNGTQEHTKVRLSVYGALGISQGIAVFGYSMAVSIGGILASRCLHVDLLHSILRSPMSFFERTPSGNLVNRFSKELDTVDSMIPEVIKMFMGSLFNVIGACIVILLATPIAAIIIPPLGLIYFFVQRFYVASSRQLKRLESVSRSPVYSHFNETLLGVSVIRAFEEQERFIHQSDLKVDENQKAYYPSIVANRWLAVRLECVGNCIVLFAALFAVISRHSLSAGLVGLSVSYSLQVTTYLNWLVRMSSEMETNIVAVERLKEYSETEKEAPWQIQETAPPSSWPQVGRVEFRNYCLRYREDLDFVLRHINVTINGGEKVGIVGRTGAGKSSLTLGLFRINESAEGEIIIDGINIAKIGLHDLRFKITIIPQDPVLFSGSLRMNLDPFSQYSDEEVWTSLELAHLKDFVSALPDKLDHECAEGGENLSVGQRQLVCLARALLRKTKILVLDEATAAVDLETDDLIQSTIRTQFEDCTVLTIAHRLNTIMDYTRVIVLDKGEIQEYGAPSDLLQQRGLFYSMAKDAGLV

For Oc1cc(N2CCC(c3nc4ccccc4o3)CC2)c(O)n1-c1cc(Cl)cc(Cl)c1 [3-[4-(1,3-benzoxazol-2-yl)-1-piperidinyl]-1-(3,5-dichlorophenyl)-2,5-pyrrolidinedione], the EC50 was 7.36 µM.

Compound COc1ccc(CN=Nc2cc(C)nc(-n3nc(C)cc3C)n2)cc1 [SMR000212741] has an EC50 of 0.656 µM.

COc1ccc(-n2c(O)cc(N3CCC(n4c(=O)[nH]c5ccccc54)CC3)c2O)cc1 was tested, and the EC50 was 5.64 µM.

CCSC(C)CC1Cc2onc(CC)c2C(N=O)C1 (stereo unspecified) [3-ethyl-6-[2-(ethylthio)propyl]-6,7-dihydro-5H-1,2-benzoxazol-4-one oxime] gave an EC50 of 6.85 µM.

COc1ccc(CN=Nc2cc(OC)ncn2)cc1 [6-methoxy-N-[(4-methoxyphenyl)methylideneamino]-4-pyrimidinamine] gave an EC50 of 3.1 µM.

Compound COc1ccc(-n2c(O)cc(N3CCC(O)(c4cccc(C(F)(F)F)c4)CC3)c2O)cc1 [1-(4-methoxyphenyl)-3-[4-oxidanyl-4-[3-(trifluoromethyl)phenyl]piperidin-1-yl]pyrrolidine-2,5-dione] has an EC50 of 4.82 µM.

In the case of CCCCCCN1C(=O)C(=Cc2c[nH]nc2-c2ccccc2)SC1=S [(5Z)-3-hexyl-5-[(5-phenyl-1H-pyrazol-4-yl)methylidene]-2-sulfanylidene-1,3-thiazolidin-4-one], the EC50 is reported as 4.16 µM.

Work on O=c1[nH]c2ccccc2n1C1CCN(c2cc(O)n(-c3ccc(F)cc3)c2O)CC1 yielded an EC50 of 7.59 µM.

Compound COC(=O)C(C=Nc1ccc(O)cc1)[N+](=O)[O-] (stereo unspecified) [(Z)-3-(4-hydroxyanilino)-2-nitro-2-propenoic acid methyl ester] has an EC50 of 1.12 µM.

Work on Oc1cc(N2CCCN(c3cc(O)n(-c4ccc(F)cc4)c3O)CC2)c(O)n1-c1ccc(F)cc1 [1-(4-fluorophenyl)-3-[4-[1-(4-fluorophenyl)-2,5-bis(oxidanylidene)pyrrolidin-3-yl]-1,4-diazepan-1-yl]pyrrolidine-2,5-dione] yielded an EC50 of 6.34 µM.

O=C1CC(=O)CC(c2ccc(Cl)cc2)C1 [5-(4-chlorophenyl)-3-hydroxy-1-cyclohex-2-enone] gave an EC50 of 5.6 µM.

In the case of Oc1cc(N2CCN(c3nc4ccccc4s3)CC2)c(O)n1-c1ccc(F)cc1 [3-[4-(1,3-benzothiazol-2-yl)-1-piperazinyl]-1-(4-fluorophenyl)pyrrolidine-2,5-dione], the EC50 is reported as 6.38 µM.

Work on O=C1CCCC(=O)C1=NNc1ccc2c(c1)OCO2 [2-(1,3-benzodioxol-5-ylhydrazinylidene)cyclohexane-1,3-dione] yielded an EC50 of 6.29 µM.

Work on CCOC(=O)C1C(C)=Nc2sc(C(=O)c3ccc(C)cc3)c(N)c2C1c1ccc(C(=O)OC)cc1 (stereo unspecified) [3-Amino-4-(4-methoxycarbonyl-phenyl)-6-methyl-2-(4-methyl-benzoyl)-4,7-dihydro-thieno[2,3-b]pyridine-5-carboxylic acid ethyl ester] yielded an EC50 of 1.96 µM.

In the case of COc1cccc(C=Nn2c(O)csc2=S)c1O [3-[[(E)-(5-methoxy-6-oxidanylidene-cyclohexa-2,4-dien-1-ylidene)methyl]amino]-2-sulfanylidene-1,3-thiazolidin-4-one], the EC50 is reported as 7.08 µM.

In the case of COc1cc(C2NC(=O)N=C(C)C2C(=O)OCc2ccc(C)cc2)cc(OC)c1O (stereo unspecified) [(4-methylphenyl)methyl 4-(3,5-dimethoxy-4-oxidanyl-phenyl)-6-methyl-2-oxidanylidene-3,4-dihydro-1H-pyrimidine-5-carboxylate], the EC50 is reported as 3.65 µM.

Compound Cc1ccc(C)c(C(=O)C2C(=O)C(=O)N(CCCn3ccnc3)C2c2ccncc2)c1 (stereo unspecified) [(4E)-4-[(2,5-dimethylphenyl)-hydroxy-methylene]-1-(3-imidazol-1-ylpropyl)-5-(4-pyridyl)pyrrolidine-2,3-quinone] has an EC50 of 6.31 µM.

Compound COc1ccc(CN=Nc2nc(-c3ccc(Cl)cc3)cc(C(F)(F)F)n2)cc1OC [4-(4-chlorophenyl)-N-[(3,4-dimethoxyphenyl)methylideneamino]-6-(trifluoromethyl)-2-pyrimidinamine] has an EC50 of 1.9 µM.

COC(=O)C1=C(C)N=C(C)C(C(=O)OC)C1c1ccccc1OCc1c(C)n[o+]n1[O-] (stereo unspecified) gave an EC50 of 5.32 µM.

For Cc1ccccc1NC(=O)Cc1sc(=O)n(-c2ccccc2)c1O [2-(2,4-Dioxo-3-phenyl-thiazolidin-5-yl)-N-o-tolyl-acetamide], the EC50 was 7.29 µM.

Work on N#CC1C(=N)SC(=N)C(C#N)C1c1cccc(O)c1 (stereo unspecified) [2,6-Diamino-4-(3-hydroxy-phenyl)-4H-thiopyran-3,5-dicarbonitrile] yielded an EC50 of 5.78 µM.

For N#Cc1ccc(-n2c(O)c3[nH][nH]c(C(=O)c4ccc5ccccc5n4)c-3c2=O)cc1 [4-[(3aS,6aS)-4,6-dioxo-3-[oxo(2-quinolinyl)methyl]-3a,6a-dihydro-1H-pyrrolo[3,4-c]pyrazol-5-yl]benzonitrile], the EC50 was 7 µM.

Compound COc1ccc(-n2c(O)c(CC(=O)Nc3ccc(F)cc3)n(CCc3cccs3)c2=O)cc1 [2-[2,5-diketo-1-(4-methoxyphenyl)-3-[2-(2-thienyl)ethyl]imidazolidin-4-yl]-N-(4-fluorophenyl)acetamide] has an EC50 of 4.38 µM.

In the case of CCOC(=O)C1C(C)=Nc2sc(C(=O)c3ccc(OC)cc3)c(N)c2C1c1ccc(C(=O)OC)cc1 (stereo unspecified) [3-Amino-2-(4-methoxy-benzoyl)-4-(4-methoxycarbonyl-phenyl)-6-methyl-4,7-dihydro-thieno[2,3-b]pyridine-5-carboxylic acid ethyl ester], the EC50 is reported as 1.1 µM.

Compound O=C(O)c1ccc(N=NCc2ccc(F)c(F)c2)cc1 [4-[2-[(3,4-difluorophenyl)methylidene]hydrazinyl]benzoic acid;sulfuric acid] has an EC50 of 7.07 µM.

Compound COC1(OC)C(O)CCC(N=O)C1N=O (stereo unspecified) [2,2-dimethoxy-3-nitroso-4-(oxidanylamino)cyclohex-3-en-1-ol] has an EC50 of 4.16 µM.

In the case of O=C(CC=NNC(=O)c1ccccc1)c1ccc(Br)cc1 [MLS000532545], the EC50 is reported as 2.86 µM.

Compound O=C(CCCCl)Nc1cc(=O)n(-c2ccccc2)[nH]1 [4-Chloro-N-(5-oxo-1-phenyl-4,5-dihydro-1H-pyrazol-3-yl)-butyramide] has an EC50 of 8.43 µM.

With CC1=CC([N+](=O)[O-])=CC(C=NNC(=O)c2cc(C)n[nH]2)C1=O (stereo unspecified) [5-methyl-N'-[(E)-(5-methyl-3-nitro-6-oxo-1-cyclohexa-2,4-dienylidene)methyl]-1H-pyrazole-3-carbohydrazide] the EC50 was 2.87 µM.

O=C1Nc2ccc(F)cc2C12NC(Cc1ccc(O)cc1)c1c2c(O)n(-c2ccc(F)cc2)c1O [(3aR,6aS)-5'-fluoranyl-5-(4-fluorophenyl)-1-[(4-hydroxyphenyl)methyl]spiro[1,2,3a,6a-tetrahydropyrrolo[3,4-c]pyrrole-3,3'-1H-indole]-2',4,6-trione] was tested, and the EC50 was 7.52 µM.

Work on O=C(Nc1nc(O)cs1)c1ccccc1 [MLS000106877] yielded an EC50 of 3.78 µM.

In the case of O=C1c2ccccc2SC1/C=N/c1cc([N+](=O)[O-])ccc1O (stereo unspecified) [(2Z)-2-[[(5-nitro-2-oxidanyl-phenyl)amino]methylidene]-1-benzothiophen-3-one], the EC50 is reported as 0.457 µM.

For O=C1/C(=C/c2nc3ccccc3[nH]2)SC(=S)N1c1ccc(F)cc1 [MLS000331487], the EC50 was 3.39 µM.

CCc1ccc(C(C)N=Nc2cc(Cl)nc(C)n2)cc1 (stereo unspecified) [(6-chloro-2-methyl-pyrimidin-4-yl)-[1-(4-ethylphenyl)ethylideneamino]amine] gave an EC50 of 3.75 µM.

COc1ccc(CN2C(=O)C(=CNc3ccc(OC)cc3)c3ccccc3C2=O)cc1 [SMR000259567] was tested, and the EC50 was 7.24 µM.

In the case of C=CCc1c(C)nc(-c2ccccc2)nc1N=NC(C)c1ccccc1 (stereo unspecified) [(5-allyl-6-methyl-2-phenyl-pyrimidin-4-yl)-(1-phenylethylideneamino)amine], the EC50 is reported as 2.34 µM.
